Reference: patent US12570988B2, “Aptamers that bind thiamine analogs and derivatives” (MeiraGTx Gene Regulation Limited, priority 2020, dated 2026)

Tests used:
riboswitch 15D10 [1] = assay: Luciferase reporter with 15D10 riboswitch (Luci-15D10) in AML12 cells; format: cell-based, mouse; details: Mus musculus, AML12, 24 h, 50 μM, AML12 cells, read-out: Fold increase in riboswitch 15D10-regulated luciferase expression, AML
riboswitch 15D10 [2] = assay: Luciferase reporter with 15D10 riboswitch (Luci-15D10) in HEK 293 cells; format: cell-based, human; details: Homo sapiens, HEK293, 24 h, 50 μM, HEK 293 cells, read-out: Fold increase in riboswitch 15D10-regulated luciferase expression, HEK
Method: Transfection: 3.5×10^4 human embryonic kidney (HEK) 293 cells were plated in a 96-well flat bottom plate the day before transfection. Plasmid DNA (500 ng) was added to a tube or a 96-well U-bottom plate. […] Then, 50 μL of this diluted transfection reagent was added to the DNA, mixed, and incubated at RT for 20 min. Finally, 7 μL of this solution was added to a well of cells in the 96-well plate. Four hours after transfection, medium containing transfection solution was replaced by medium containing either TPP, fursultiamine, prosultiamine, bisbentiamine, beclotiamine hydrochloride, or sulbutiamine as aptamer inducers.
Firefly luciferase assay of cultured cells: Twenty-four hours after media change, plates were removed from the incubator, and equilibrated to RT for several minutes on a lab bench, then aspirated. Glo-lysis buffer (Promega, 100 μL, RT) was added, and the plates allowed to remain at RT for at least 5 minutes. Then, the well contents were mixed by 50 μL trituration, and 20 μL of each sample was mixed with 20 μL of bright-glo reagent (Promega) that had been diluted to 10% in glo-lysis buffer. 96 wells were spaced on an opaque white 384-well plate. Following a 5 min incubation at RT, luminescence was measured using a Tecan machine with 500 ms read time. The luciferase activity was expressed as mean arbitrary light units (ALU)±S.D., and fold induction was calculated as the quotient of the luciferase activity obtained from cells with TPP or analog treatment divided by the luciferase activity obtained from cells without TPP or analog treatment.

| Structure (SMILES) | fold induction at 50 µM (riboswitch 15D10 [1]; Table 2) | fold induction at 50 µM (riboswitch 15D10 [2]; Table 2) | fold induction at 50 µM (riboswitch 15D10 [1]; Table 3) | fold induction at 50 µM (riboswitch 15D10 [2]; Table 3) |
| --- | --- | --- | --- | --- |
| C/C(=C(\CCO)SC(=O)c1ccc2ccccc2c1Br)N(C=O)Cc1cnc(C)nc1N [Compound M51, (Z)—S-(2-(N-((4-amino-2-methylpyrimidin-5-yl)methyl)formamido)-5-hydroxypent-2-en-3-yl) 1-bromonaphthalene-2-carbothioate] | 189 | 392 |  |  |
| C/C(=C(\CCO)SC(=O)c1cc(Cl)ccc1Oc1ccccc1)N(C=O)Cc1cnc(C)nc1N [Compound M131, (Z)—S-(2-(N-((4-amino-2-methylpyrimidin-5-yl)methyl)formamido)-5-hydroxypent-2-en-3-yl) 5-chloro-2-phenoxybenzothioate] |  |  | 509 | 741 |
| C/C(=C(\CCO)SC(=O)c1c(C)cccc1Oc1ccccc1)N(C=O)Cc1cnc(C)nc1N [Compound M128, (Z)—S-(2-(N-((4-amino-2-methylpyrimidin-5-yl)methyl)formamido)-5-hydroxypent-2-en-3-yl) 2-methyl-6-phenoxybenzothioate] |  |  | 7.87 | 0.56 |
| C/C(=C(\CCO)SC(=O)c1ccc(F)c2ccccc12)N(C=O)Cc1cnc(C)nc1N [Compound M44, (Z)—S-(2-(N-((4-amino-2-methylpyrimidin-5-yl)methyl)formamido)-5-hydroxypent-2-en-3-yl) 4-fluoronaphthalene-1-carbothioate] | 314 | 177 |  |  |
| C/C(=C(\CCO)SC(=O)c1c(F)cccc1Oc1ccccc1Cl)N(C=O)Cc1cnc(C)nc1N [Compound M142, (Z)—S-(2-(N-((4-amino-2-methylpyrimidin-5-yl)methyl)formamido)-5-hydroxypent-2-en-3-yl) 2-(2-chlorophenoxy)-6-fluorobenzothioate] |  |  | 184 | 85.3 |
| C/C(=C(\CCO)SC(=O)C(c1ccccc1)c1ccccc1)N(C=O)Cc1cnc(C)nc1N [Compound M64, (Z)—S-(2-(N-((4-amino-2-methylpyrimidin-5-yl)methyl)formamido)-5-hydroxypent-2-en-3-yl) 2,2-diphenylethanethioate] | 3.9 | 2 |  |  |
| C/C(=C(\CCO)SC(=O)c1ccc(Oc2ccccc2)cc1Cl)N(C=O)Cc1cnc(C)nc1N [Compound M149, (Z)—S-(2-(N-((4-amino-2-methylpyrimidin-5-yl)methyl)formamido)-5-hydroxypent-2-en-3-yl) 2-chloro-4-phenoxybenzothioate] |  |  | 383 | 176 |
| C/C(=C(\CCO)SC(=O)c1cccc(-c2ccccc2)c1)N(C=O)Cc1cnc(C)nc1N [Compound M72, (Z)—S-(2-(N-((4-amino-2-methylpyrimidin-5-yl)methyl)formamido)-5-hydroxypent-2-en-3-yl) [1,1′-biphenyl]-3-carbothioate] | 295 | 236 |  |  |
| C/C(=C(\CCO)SC(=O)c1c(C)cc(Oc2ccccc2)cc1F)N(C=O)Cc1cnc(C)nc1N [Compound M150, (Z)—S-(2-(N-((4-amino-2-methylpyrimidin-5-yl)methyl)formamido)-5-hydroxypent-2-en-3-yl) 2-fluoro-6-methyl-4-phenoxybenzothioate] |  |  | 12 | 12.3 |
| CCOc1cc(C(C)(C)C)ccc1C(=O)S/C(CCO)=C(/C)N(C=O)Cc1cnc(C)nc1N [Compound M115, (Z)—S-(2-(N-((4-amino-2-methylpyrimidin-5-yl)methyl)formamido)-5-hydroxypent-2-en-3-yl) 4-(tert-butyl)-2-ethoxybenzothioate] | 52.1 | 19.9 |  |  |
| CCOc1ccc(C(=O)S/C(CCO)=C(/C)N(C=O)Cc2cnc(C)nc2N)c2ccccc12 [Compound M109, (Z)—S-(2-(N-((4-amino-2-methylpyrimidin-5-yl)methyl)formamido)-5-hydroxypent-2-en-3-yl) 4-ethoxynaphthalene-1-carbothioate] | 87.3 | 22.6 |  |  |
| C/C(=C(\CCO)SC(=O)c1cccc2cccc(C)c12)N(C=O)Cc1cnc(C)nc1N [Compound M46, (Z)—S-(2-(N-((4-amino-2-methylpyrimidin-5-yl)methyl)formamido)-5-hydroxypent-2-en-3-yl) 8-methylnaphthalene-1-carbothioate] | 6 | 1.3 |  |  |
| C/C(=C(\CCO)SC(=O)c1ccc(C(C)(C)C)cc1)N(C=O)Cc1cnc(C)nc1N [Compound M114, (Z)—S-(2-(N-((4-amino-2-methylpyrimidin-5-yl)methyl)formamido)-5-hydroxypent-2-en-3-yl) 4-(tert-butyl)benzothioate] | 88.8 | 50.1 |  |  |
| C/C(=C(\CCO)SC(=O)c1ccc(Oc2ccccc2)cc1)N(C=O)Cc1cnc(C)nc1N [Compound M73, (Z)—S-(2-(N-((4-amino-2-methylpyrimidin-5-yl)methyl)formamido)-5-hydroxypent-2-en-3-yl) 4-phenoxybenzothioate] | 200 | 205 |  |  |
| C/C(=C(\CCO)SC(=O)c1c(F)cccc1Oc1ccccc1)N(C=O)Cc1cnc(C)nc1N [Compound M126, (Z)—S-(2-(N-((4-amino-2-methylpyrimidin-5-yl)methyl)formamido)-5-hydroxypent-2-en-3-yl) 2-fluoro-6-phenoxybenzothioate] |  |  | 305 | 147 |
| COc1ccc2cc(C(=O)S/C(CCO)=C(/C)N(C=O)Cc3cnc(C)nc3N)ccc2c1 [Compound M52, (Z)—S-(2-(N-((4-amino-2-methylpyrimidin-5-yl)methyl)formamido)-5-hydroxypent-2-en-3-yl) 6-methoxynaphthalene-2-carbothioate] | 195 | 364 |  |  |
| COc1ccc(C(=O)S/C(CCO)=C(/C)N(C=O)Cc2cnc(C)nc2N)c2ccccc12 [Compound M47, (Z)—S-(2-(N-((4-amino-2-methylpyrimidin-5-yl)methyl)formamido)-5-hydroxypent-2-en-3-yl) 4-methoxynaphthalene-1-carbothioate] | 85.1 | 25.3 |  |  |
| C/C(=C(\CCO)SC(=O)c1c(Cl)cccc1Oc1ccccc1)N(C=O)Cc1cnc(C)nc1N [Compound M127, (Z)—S-(2-(N-((4-amino-2-methylpyrimidin-5-yl)methyl)formamido)-5-hydroxypent-2-en-3-yl) 2-chloro-6-phenoxybenzothioate] |  |  | 7.39 | 0.46 |
| C/C(=C(\CCO)SC(=O)c1c(F)cccc1Oc1cccc(Cl)c1)N(C=O)Cc1cnc(C)nc1N [Compound M130, (Z)—S-(2-(N-((4-amino-2-methylpyrimidin-5-yl)methyl)formamido)-5-hydroxypent-2-en-3-yl) 2-(3-chlorophenoxy)-6-fluorobenzothioate] |  |  | 329 | 110 |
| C/C(=C(\CCO)SC(=O)c1ccc2c(c1)C(C)(C)CCC2(C)C)N(C=O)Cc1cnc(C)nc1N [Compound M50, (Z)—S-(2-(N-((4-amino-2-methylpyrimidin-5-yl)methyl)formamido)-5-hydroxypent-2-en-3-yl) 5,5,8,8-tetramethyl-5,6,7,8-tetrahydronaphthalene-2-carbothioate] | 142 | 93.5 |  |  |
